Columns and labels:
Beckmannia syzigachne = test: Pre-emergence test experiment; format: in vivo; settings: activity level, sprayed after sowing, 4 weeks
From the text: (§1) Monocotyledonous and dicotyledonous weed seeds as well as major crop seeds (wheat, corn, rice, soybean, peanut, cotton, oilseed rape, millet, and sorghum) were placed in plastic pots filled with soil, and then covered with 0.5-2 cm of soil. The test compounds of the present invention were individually dissolved with acetone, then added with Tween 80, diluted with a certain amount of water to obtain a solution of a certain concentration, and sprayed immediately after sowing. After drug application, cultivation was conducted for 4 weeks in a greenhouse and then the experimental results were observed.

Setaria viridis = test: Pre-emergence test experiment; format: in vivo; settings: activity level, sprayed after sowing, 4 weeks
From the text: as §1

Corn = settings: in vivo, 4 weeks
From the text: as §1

Cotton = settings: in vivo, 4 weeks
From the text: as §1

Peanut = settings: in vivo, 4 weeks
From the text: as §1

Soybean = settings: in vivo, 4 weeks
From the text: as §1

Echinochloa crusgalli = test: Weed control effect evaluation in rice fields; format: in vivo; settings: activity level, 0.5-leaf stage, flooded pot, 14th day, weed resistant to pyrazosulfuron
From the text: (§2) After rice field soil was loaded into a 1/1,000,000 ha pot, the seeds of Echinochloa crusgalli, Echinochloa phyllopogon, Monochoria vaginalis, Leptochloa chinensis, and Ludwigia prostrata were sowed and gently covered with soil, then left to stand in a greenhouse with water storage of 0.5-1 cm deep. The tuber of Sagittaria trifolia was planted in the next day or 2 days later. The water storage was kept at a depth of 3-4 cm thereafter. When the Echinochloa crusgalli, Echinochloa phyllopogon, and Leptochloa chinensis reached their 0.5-leaf stages and the Sagittaria trifolia reached the time point of the primary leaf stage, WP or SC aqueous dilutions of the compounds of the present invention formulated according to common formulation methods were homogeneously dripped to the specified effective amount using pipettes for treatment.

Echinochloa phyllopogon = test: Weed control effect evaluation in rice fields; format: in vivo; settings: activity level, 0.5-leaf stage, flooded pot, 14th day, weed resistant to pyrazosulfuron
From the text: as §2

Digitaria ischaemum = test: Activity test of compositions, soil sealing treatment (S); format: in vivo; settings: A alone 60 g a.i./ha, fresh weight inhibition rate 21 days after treatment
From the text: (§3) The required active ingredient B was purchased from a reagent company or synthesized by a known method. The technical materials were all dissolved with acetone solvents and diluted with an aqueous solution of 0.1% Tween 80 emulsifier, which were to be used immediately after dilution.
The test soil was quantitatively filled to 3/4 of the pot, and then watered from the bottom of the pot to completely wet the soil to saturation. The test weed seeds were accelerated to just germinate, and then evenly and quantitatively sowed on the soil surface, covered with 0.5-1 cm soil according to the sizes of the seeds, and ready for use 72 hours after sowing.
(§4) Each treatment was repeated 4 times. Four pots with 20 weed seeds sowed per pot were treated each time.
(§5) The well-sowed test materials were evenly placed on a platform with an area of 0.5 m^2, and foliage spraying was carried out by the 3WP-2000-type walking spray tower at a dosage of 450 kg/ha and a spray pressure of 0.3 MPa. After all the solution was sprayed, the air valve was closed, and 30 seconds later, the door of the spray tower was opened, and the nutritional bowl was taken out. Then the air valve was opened, and the spray tube was cleaned by spraying 50 ml of water.
(§6) A method for investigating absolute numbers was employed. Whole seedlings of survival weeds were cut off with a blade along the soil surface, and the fresh weight of the weeds was weighed using an analytical balance. For dead weeds, the fresh weight thereof was zero.
(§7) The investigation was performed 21 days after the treatment for once in total.
(§8) The theoretical fresh weight inhibition rate of a mixed combination of each treatment was calculated by the Gowing method (E0=X+Y−X*Y/100). […] An optimal ratio was determined according to the actual control effects, characteristics of herbicides, and balance of the formulation. In the formula, X represents the fresh weight inhibition rate of the active ingredient A in a dosage of P; Y represents the fresh weight inhibition rate of the active ingredient B in a dosage of Q. The statistical results are shown in Table 4.

Arivela viscosa = test: as above; format: in vivo; settings: A alone 60 g a.i./ha, fresh weight inhibition rate 21 days after treatment
Experimental: as §3
(§9) Weeds were cultivated in a controllable sunlight greenhouse at 20 to 30° C., in natural light, and with relative humidity of 57% to 72%. […] The test soil was quantitatively filled to 3/4 of the pot, and then watered from the bottom of the pot to completely wet the soil to saturation. The test weed seeds were accelerated to just germinate, and then evenly and quantitatively sowed on the soil surface, covered with 0.5-1 cm soil according to the sizes of the seeds, and ready for use 72 hours after sowing.
as §4, §5, §6, §7, §8

Cyperus glomeratus [1] = test: as above; format: in vivo; settings: A alone 30 g a.i./ha, fresh weight inhibition rate 21 days after treatment
Experimental: as §3, §9, §4, §5, §6, §7, §8

Echinochloa glabrescens [2] = test: as above; format: in vivo; settings: A alone 30 g a.i./ha, fresh weight inhibition rate 21 days after treatment
Experimental: as §3, §9, §4, §5, §6, §7, §8

Oxybasis glauca = test: as above; format: in vivo; settings: for Control effect of B applied alone in a corresponding dose: 21 days after treatment
Experimental: as §3, §9, §4, §5, §6, §7, §8

Cyperus glomeratus [3] = test: Activity test of compositions, early post-emergence foliage spray (F-EP); format: in vivo; settings: for Control effect of B applied alone in a corresponding dose: 21 days after treatment
Experimental: as §3
(§10) Weeds were cultivated by a pot culture method. […] Weed seeds with plump and uniform grains were selected, soaked in lukewarm water at 25° C. for 6 hours, and accelerated to germinate in a 28° C. biochemical incubator (in darkness). The weed seeds that had just germinated were evenly placed on the surface of the soil and then covered with 0.5-1 cm soil according to the sizes of seeds.
(§11) The culture was carried out in a controllable sunlight greenhouse at 20 to 30° C., in natural light, and with relative humidity of 57% to 72%.
as §4
(§12) The agents were used once in total in the experiment. In the stage of 1-2 leaves, the weeds were thinned out to maintain 10 strains per treatment for later use.
(§13) The well-cultured test materials were evenly placed on a platform with an area of 0.5 m^2, and foliage spraying was carried out by the 3WP-2000-type walking spray tower at a dosage of 450 kg/ha and a spray pressure of 0.3 MPa. After all the solution was sprayed, the air valve was closed, and 30 seconds later, the door of the spray tower was opened, and the nutritional bowl was taken out. Then the air valve was opened, and the spray tube was cleaned by spraying 50 ml of water. The test materials were transferred to and routinely cultured in a greenhouse after the treatment.
as §6, §7, §8

[4] = system: Echinochloa crus-galli var. austrojaponensis; test: as above; format: in vivo; settings: fresh weight inhibition rate 21 days after treatment
Experimental: as §3, §10, §11, §4, §12, §13, §6, §7, §8

Echinochloa glabrescens [5] = test: as above; format: in vivo; settings: A alone 30 g a.i./ha, fresh weight inhibition rate 21 days after treatment
Experimental: as §3, §10, §11, §4, §12, §13, §6, §7, §8

Soliva anthemifolia = test: as above; format: in vivo; settings: A alone 60 g a.i./ha, fresh weight inhibition rate 21 days after treatment
Experimental: as §3, §10, §11, §4, §12, §13, §6, §7, §8

Rice = settings: japonica, in vivo, 7 days
Experimental: In addition, after being loaded into the 1/1,000,000 ha pot, the rice field soil was leveled to keep the water storage at a depth of 2-3 cm. The rice (japonica rice) at 3-leaf stage was transplanted at a transplanting depth of 2-3 cm the next day. The compounds of the present invention were treated in the same manner as above on the 3rd day after the transplantation.
The effects were evaluated according to the above-mentioned activity level criteria.

Lolium perenne = test: Pre-emergence test experiment; format: in vivo; settings: activity level (fresh weight growth control rate), sprayed after sowing, 4 weeks
From the text: as §1

Wheat = settings: in vivo
From the text: as §1

Direct sowing rice = settings: in vivo, 7 days
Experimental: To simulate a field of direct sowing rice, a 5-cm water layer was added to the container first, fully mixed with mud to form slurry, and then rice seeds were scattered in. After the slurry became clear, the water layer was removed. The soil was kept moist and applied with drug solution evenly by spraying. The soil was rehydrated to 3-cm deep 3-4 days after drug application.
The doses of the compounds used in the above-mentioned experiments were 3.75, 7.5, 15, 30, 60, and 120 g a.i./ha. […] The effects were evaluated according to the above-mentioned activity level criteria.

CC(C)C12CCC(C)(O1)C(OCc1c(F)cccc1Br)C2 (racemic) [Compound 1]
Beckmannia syzigachne 60 g a.i./ha (Beckmannia syzigachne): 9
Setaria viridis 30 g a.i./ha (Setaria viridis): 9
Corn 60 g a.i./ha (Corn): 0
Cotton 60 g a.i./ha (Cotton): 0
Peanut 60 g a.i./ha (Peanut): 0
Soybean 60 g a.i./ha (Soybean): 0
Echinochloa crusgalli 7.5 g a.i./ha (Echinochloa crusgalli): 9
Echinochloa phyllopogon 7.5 g a.i./ha (Echinochloa phyllopogon): 9
Control effect of A applied alone in a corresponding dose (%) (Digitaria ischaemum): 56.4%
Control effect of A applied alone in a corresponding dose (%) (Arivela viscosa): 18.5%
Control effect of A applied alone in a corresponding dose (%) (Cyperus glomeratus [1]): 56.1%
Control effect of A applied alone in a corresponding dose (%) (Echinochloa glabrescens [2]): 58.3%
Control effect of A applied alone in a corresponding dose (%) (Oxybasis glauca; A alone 60 g a.i./ha, fresh weight inhibition rate 21 days after treatment): 19.8%
Control effect of A applied alone in a corresponding dose (%) (Cyperus glomeratus [3]; A alone 30 g a.i./ha, fresh weight inhibition rate 21 days after treatment): 51.5%
Control effect of A applied alone in a corresponding dose (%) ([4]; A alone 30 g a.i./ha): 38.4%
Control effect of A applied alone in a corresponding dose (%) ([4]; A alone 60 g a.i./ha): 52.7%
Control effect of A applied alone in a corresponding dose (%) (Echinochloa glabrescens [5]): 48.7%
Control effect of A applied alone in a corresponding dose (%) (Soliva anthemifolia): 22.8%
Rice 30 g a.i./ha (Rice): 0

CC(C)C12CCC(C)(O1)C(OCc1ccccc1Br)C2 (stereo not drawn) [Control compound A]
Lolium perenne 30 g a.i./ha (Lolium perenne): 1 (Level 1: growth control rate is less than 10%)

CC(C)C12CCC(C)(O1)C(OCc1c(F)cccc1Cl)C2 (stereo not drawn) [Control compound C]
phytotoxicity to wheat (Wheat): unacceptable phytotoxicity
Rice 60 g a.i./ha (Rice): 9
Direct sowing rice 60 g a.i./ha (Direct sowing rice): 9

CC(C)N1C(=O)c2ccccc2NS1(=O)=O [bentazone]
Control effect of B applied alone in a corresponding dose (Cyperus glomeratus [3]; B alone 300 g a.i./ha): 43.8

C#CCN1C(=O)COc2cc(F)c(N3C(=O)C4=C(CCCC4)C3=O)cc21 [flumioxazin]
Control effect of B applied alone in a corresponding dose (Oxybasis glauca; B alone 30 g a.i./ha): 55.6

CCC(=O)Nc1ccc(Cl)c(Cl)c1 [propanil]
Control effect of B applied alone in a corresponding dose (Cyperus glomeratus [3]; B alone 900 g a.i./ha): 19.7

COC(=O)c1sccc1S(=O)(=O)NC(=O)Nc1nc(C)nc(OC)n1 [thifensulfuronmethyl, thifensulfuron-methyl]
Control effect of B applied alone in a corresponding dose (Oxybasis glauca; B alone 7.5 g a.i./ha): 68.6

Source: patent US20260191194A1, “OXABICYCLOALKANE COMPOUNDS, PREPARATION METHOD THEREFOR, AND HERBICIDAL COMPOSITION AND USE THEREOF” (QINGDAO KINGAGROOT CHEMICAL COMPOUND CO., LTD., priority 2022, published 2026)
